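Following 48 hours of exposure in 96-well plates, responses at five concentrations were used to interpolate endpoints linearly. GI50 is the concentration that inhibits growth by half.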 Activity calls are given as the source filed them. Cut-off read from the data, not from the text of the source: active = GI50 up to about 1.1 µM and inactive = higher.
Assays:
Assay in all cases: NCI tumour cell line growth inhibition, 48 h
MDA-MB-231 = test system: MDA-MB-231
K562 = test system: K562
NCI-H23 = test system: NCI-H23
ACHN = test system: ACHN
COLO 205 = test system: COLO 205
MOLT-4 = test system: MOLT-4
RPMI-8226 = test system: RPMI-8226
HCT-15 = test system: HCT-15
SNB-19 = test system: SNB-19
UACC-257 = test system: UACC-257
CAKI-1 = test system: CAKI-1
NCI-H226 = test system: NCI-H226
MDA-N = test system: MDA-N
A549 = test system: A549
CCRF-CEM = test system: CCRF-CEM
SF-295 = test system: SF-295
OVCAR-3 = test system: OVCAR-3
IGROV-1 = test system: IGROV-1
HL-60 = test system: HL-60
T47D = test system: T47D

Structure (SMILES) | GI50 (MDA-MB-231) | GI50 (K562) | GI50 (NCI-H23) | GI50 (ACHN) | GI50 (COLO 205) | GI50 (MOLT-4) | GI50 (RPMI-8226) | GI50 (HCT-15) [µM] | GI50 (SNB-19) | GI50 (UACC-257) | GI50 (CAKI-1) | GI50 (NCI-H226) | GI50 (MDA-N) | GI50 (A549) | GI50 (CCRF-CEM) | GI50 (SF-295) | GI50 (OVCAR-3) | GI50 (IGROV-1) | GI50 (HL-60) | GI50 (T47D)
Cc1ccccc1C1OC1C(=O)c1ccccc1N (stereo unspecified) | 31.6 µM (inactive) | 56.8 µM (inactive) | 38.6 µM (inactive) | > 100 µM (inactive) | 87.3 µM (inactive) | 39.3 µM (inactive) | 46.7 µM (inactive) | 53.3 | 56.4 µM (inactive) | 74.3 µM (inactive) | 45.8 µM (inactive) | > 100 µM (inactive) | 14.1 µM (inactive) | 48 µM (inactive) | > 100 µM (inactive) | – | – | – | – | –
COC(=O)C(Cc1nc2ccccc2nc1C)/C(=N\NC(N)=O)C(=O)Nc1cccc([N+](=O)[O-])c1 (stereo unspecified) | – | 64.3 µM (inactive) | 71.8 µM (inactive) | > 100 µM (inactive) | 88.3 µM (inactive) | 57.5 µM (inactive) | > 100 µM (inactive) | > 100 | > 100 µM (inactive) | > 100 µM (inactive) | > 100 µM (inactive) | > 100 µM (inactive) | – | > 100 µM (inactive) | 29.6 µM (inactive) | > 100 µM (inactive) | 51.2 µM (inactive) | > 100 µM (inactive) | 36.1 µM (inactive) | –
CC1(C)OC(CCO)CN1C(=O)OCc1ccccc1 (stereo unspecified) | > 100 µM (inactive) | > 100 µM (inactive) | > 100 µM (inactive) | > 100 µM (inactive) | > 100 µM (inactive) | > 100 µM (inactive) | > 100 µM (inactive) | > 100 | > 100 µM (inactive) | > 100 µM (inactive) | > 100 µM (inactive) | > 100 µM (inactive) | > 100 µM (inactive) | > 100 µM (inactive) | > 100 µM (inactive) | > 100 µM (inactive) | > 100 µM (inactive) | > 100 µM (inactive) | > 100 µM (inactive) | –
CN(CCN1C(=O)c2cccc3cccc(c23)C1=O)CCN1C(=O)c2cccc3cccc(c23)C1=O | 13.7 µM (inactive) | 73.1 µM (inactive) | 16.9 µM (inactive) | 7.69 µM (inactive) | 2.55 µM (inactive) | 7.73 µM (inactive) | – | 0.178 | 3.17 µM (inactive) | 60.1 µM (inactive) | > 100 µM (inactive) | 17.5 µM (inactive) | – | 27.6 µM (inactive) | 2.18 µM (inactive) | 12.8 µM (inactive) | 21.2 µM (inactive) | 17.4 µM (inactive) | 68.7 µM (inactive) | 1.5 µM (inactive)
Cc1ccccc1N/C(N)=N/C#N | > 100 µM (inactive) | > 100 µM (inactive) | > 100 µM (inactive) | > 100 µM (inactive) | > 100 µM (inactive) | > 100 µM (inactive) | > 100 µM (inactive) | > 100 | > 100 µM (inactive) | > 100 µM (inactive) | > 100 µM (inactive) | – | > 100 µM (inactive) | > 100 µM (inactive) | > 100 µM (inactive) | – | – | > 100 µM (inactive) | > 100 µM (inactive) | –
COC(=O)C1=CC2CC1C(S(=O)(=O)c1ccccc1)C2S(=O)(=O)c1ccccc1 (stereo unspecified) | – | 5.14 µM (inactive) | 18.1 µM (inactive) | 7.48 µM (inactive) | 8.45 µM (inactive) | 4.42 µM (inactive) | 5.4 µM (inactive) | 12.5 | > 100 µM (inactive) | 15.2 µM (inactive) | 7.83 µM (inactive) | 17.6 µM (inactive) | – | 24.8 µM (inactive) | 2.92 µM (inactive) | 21.3 µM (inactive) | 7.23 µM (inactive) | 32.7 µM (inactive) | 2.62 µM (inactive) | –
C[N+]1([O-])CCC(O)(C2CC2)CC1 (stereo unspecified) | > 100 µM (inactive) | > 100 µM (inactive) | > 100 µM (inactive) | > 100 µM (inactive) | > 100 µM (inactive) | > 100 µM (inactive) | > 100 µM (inactive) | > 100 | > 100 µM (inactive) | > 100 µM (inactive) | > 100 µM (inactive) | > 100 µM (inactive) | – | > 100 µM (inactive) | > 100 µM (inactive) | > 100 µM (inactive) | > 100 µM (inactive) | > 100 µM (inactive) | > 100 µM (inactive) | > 100 µM (inactive)
CCOC(=O)/C(=C/c1cccc(OC)c1)N(CC)CC | – | > 100 µM (inactive) | > 100 µM (inactive) | > 100 µM (inactive) | > 100 µM (inactive) | > 100 µM (inactive) | > 100 µM (inactive) | > 100 | > 100 µM (inactive) | > 100 µM (inactive) | > 100 µM (inactive) | > 100 µM (inactive) | – | > 100 µM (inactive) | > 100 µM (inactive) | > 100 µM (inactive) | > 100 µM (inactive) | > 100 µM (inactive) | > 100 µM (inactive) | –
COc1cc2oc(=O)cc(C)c2c(OC)c1OC(C)=O | > 100 µM (inactive) | > 100 µM (inactive) | > 100 µM (inactive) | > 100 µM (inactive) | > 100 µM (inactive) | > 100 µM (inactive) | > 100 µM (inactive) | > 100 | > 100 µM (inactive) | > 100 µM (inactive) | – | > 100 µM (inactive) | > 100 µM (inactive) | > 100 µM (inactive) | > 100 µM (inactive) | > 100 µM (inactive) | > 100 µM (inactive) | > 100 µM (inactive) | – | –
COc1ccc(/N=[N+](\[O-])c2ccc(OC)cc2)cc1 | > 100 µM (inactive) | > 100 µM (inactive) | > 100 µM (inactive) | > 100 µM (inactive) | > 100 µM (inactive) | > 100 µM (inactive) | > 100 µM (inactive) | > 100 | > 100 µM (inactive) | > 100 µM (inactive) | > 100 µM (inactive) | – | > 100 µM (inactive) | > 100 µM (inactive) | – | > 100 µM (inactive) | > 100 µM (inactive) | > 100 µM (inactive) | – | –
C=CCCCCCC(O)C(O)C/C=C\C/C=C\CC (stereo unspecified) | – | > 12 µM (inactive) | > 17.8 µM (inactive) | > 18.8 µM (inactive) | > 18.8 µM (inactive) | > 14.9 µM (inactive) | > 18.8 µM (inactive) | > 18.8 | > 18.8 µM (inactive) | > 18.8 µM (inactive) | > 18.8 µM (inactive) | > 18.8 µM (inactive) | – | > 18.8 µM (inactive) | > 18.8 µM (inactive) | > 18.8 µM (inactive) | > 18.8 µM (inactive) | > 18.8 µM (inactive) | > 7.71 µM (inactive) | –
CN(CCO)c1nc(=O)c2c([nH]1)CCC2 | – | > 100 µM (inactive) | > 100 µM (inactive) | > 100 µM (inactive) | > 100 µM (inactive) | > 100 µM (inactive) | > 100 µM (inactive) | > 100 | > 100 µM (inactive) | > 100 µM (inactive) | > 100 µM (inactive) | > 100 µM (inactive) | – | > 100 µM (inactive) | > 100 µM (inactive) | > 100 µM (inactive) | > 100 µM (inactive) | > 100 µM (inactive) | > 100 µM (inactive) | –
O=C(O)CCC1(CCC(=O)O)CCCCCCCCC(CCC(=O)O)(CCC(=O)O)C(=O)C1=O | – | > 100 µM (inactive) | > 100 µM (inactive) | > 100 µM (inactive) | > 100 µM (inactive) | – | < 0.01 µM (active) | > 100 | > 100 µM (inactive) | > 100 µM (inactive) | > 100 µM (inactive) | > 100 µM (inactive) | – | > 100 µM (inactive) | – | > 100 µM (inactive) | > 100 µM (inactive) | – | > 100 µM (inactive) | > 100 µM (inactive)
CC(=O)OCC1OC(n2c3c(cc(C#N)c2=S)CCCCCC3)C(OC(C)=O)C(OC(C)=O)C1OC(C)=O (stereo unspecified) | > 100 µM (inactive) | 32.1 µM (inactive) | > 100 µM (inactive) | > 100 µM (inactive) | 84.1 µM (inactive) | 26.1 µM (inactive) | 55.5 µM (inactive) | 97.5 | > 100 µM (inactive) | > 100 µM (inactive) | > 10 µM (inactive) | > 100 µM (inactive) | – | > 100 µM (inactive) | 47.3 µM (inactive) | > 100 µM (inactive) | > 100 µM (inactive) | > 100 µM (inactive) | 36.2 µM (inactive) | 5.2 µM (inactive)
CCN1C(=O)/C(=C2\SC(c3ccccc3)(c3ccccc3)c3ccccc32)SC1=S | 72.3 µM (inactive) | > 100 µM (inactive) | > 100 µM (inactive) | > 100 µM (inactive) | 64.4 µM (inactive) | 96.4 µM (inactive) | > 100 µM (inactive) | > 100 | 10.1 µM (inactive) | > 100 µM (inactive) | – | > 100 µM (inactive) | > 100 µM (inactive) | 87.9 µM (inactive) | > 100 µM (inactive) | 24.4 µM (inactive) | 51.9 µM (inactive) | 70.3 µM (inactive) | – | –
O=C1Nc2cccc(Cl)c2/C1=C\c1cccnc1 | – | 5.85 µM (inactive) | 3.75 µM (inactive) | 10.8 µM (inactive) | 3.32 µM (inactive) | 4.23 µM (inactive) | – | 6.62 | 3.7 µM (inactive) | 5.06 µM (inactive) | 10.2 µM (inactive) | – | – | 11.1 µM (inactive) | 4.58 µM (inactive) | 16.7 µM (inactive) | 5.64 µM (inactive) | – | 3.72 µM (inactive) | 3.65 µM (inactive)

Source: ChEMBL document CHEMBL1201862, “PubChem BioAssay data set” (2004)
